Read-outs that look alike come from different tables or passages of the source.
Assay: Venetoclax plasma pharmacokinetics in wild-type, CYP3A(−/−) and OATP1B2(−/−) mice
Format: in vivo
Details: for AUC(0-t) / Cmax: mouse, plasma, po, mean (SE)
Method: In vivo experiments were performed with female and male mice from inbred wild-type strains (FVB, DBA) or with age- and sex-matched genetically-engineered mice with a deficiency of the Cyp3a locus (8-genes; […] The studies were conducted in accordance with the NIH's Guide for the Care and Use of Laboratory Animals and as approved by the University Laboratory Animal Resources Animal Care and Use Committee at Ohio State University (2015A00000101-R2; last approved 20 September 2021) and. Mice were housed in a temperature- and light-controlled environment with free access to water and a standard diet, excluding a 3-h fast before venetoclax administration. For in vivo studies, venetoclax was prepared for oral administration by dissolving the powder in DMSO (5%) and then adding PEG300 (50%), Tween-80 (5%), and water (40%) stepwise to create a suspension with a final concentration of 2 mg/mL. […] Based on our previous experience, all experiments were prospectively designed to have group sizes of five; however, pharmacokinetic data from two CYP3A(-/-) mice were excluded due to tolerability concerns, resulting in a final group size of three (Supplementary Table S1). Pharmacokinetic studies were performed as described previously. In brief, approximately 30 μL of whole blood was collected from each mouse at six time points between 5 min and 8 h after venetoclax administration; in most cases, samples were collected at 5 min, 15 min, 30 min, 1 h, 3 h, and 8 h. The first three samples were collected from a submandibular vein using a sterile 5-mm Goldenrod Animal Lancet and a heparinized capillary tube. The fourth and fifth samples were collected from the retro-orbital venous plexus using capillary tubes after anesthetizing the mice using 2% isoflurane. The terminal sample was collected into a 1.3-mL tube containing heparin by cardiac puncture using a syringe and needle. Whole blood samples were centrifuged at 13,000× g for 5 min. The plasma supernatant was then collected, immediately placed on dry ice, and stored at -80 °C until analysis. Venetoclax was quantified using a validated UHPLC-MS/MS analytical method; this method utilizes 5-μL sample volumes and has a lower limit of quantification of 5 ng/mL. Non-compartmental analysis was performed to determine the pharmacokinetic parameters of venetoclax using Phoenix WinNonlin version 8.0 (Certara, Princeton, NJ, USA). Peak plasma concentration (Cmax) was determined by visual inspection of the data from the log concentration versus time curves. The linear trapezoidal rule was used to obtain the area under the plasma concentration-time curve from time zero to the time of the last measurable concentration (AUC0-last).

With `CC1(C)CCC(CN2CCN(c3ccc(C(=O)NS(=O)(=O)c4ccc(NCC5CCOCC5)c([N+](=O)[O-])c4)c(Oc4cnc5[nH]ccc5c4)c3)CC2)=C(c2ccc(Cl)cc2)C1` [Venetoclax] the “Venetoclax AUC Fold Increase” value (CYP3A(−/−) + ketoconazole 50 mg/kg versus vehicle-treated CYP3A(−/−)) was 1.6 (versus vehicle-treated wild-type CYP3A(−/−)) fold, the “Venetoclax AUC Fold Increase” value (CYP3A(−/−) + ketoconazole 50 mg/kg versus vehicle-treated CYP3A(−/−), listed as venetoclax) was 1.6 fold and the “Venetoclax AUC Fold Increase” value (female OATP1B2(−/−) versus wild-type DBA) was 2.0 (versus wild-type DBA) fold. For the same compound, the “Venetoclax AUC Fold Increase” value (female OATP1B2(−/−) versus wild-type DBA, listed as venetoclax) was 2 fold, the AUC(0-t) (female, CYP3A(−/−) knockout (FVB.129P2 background), 10 mg/kg, CYP3A(−/−), female, venetoclax 10 mg/kg PO, co-treatment None (control of micafungin experiment), read-out: Venetoclax AUC(0–8h)) was 10600 ng·h/mL and the AUC(0-t) (female, DBA, 10 mg/kg, wild-type DBA, female, n=10, venetoclax 10 mg/kg PO, no co-treatment, read-out: Venetoclax AUC(0–8h)) was 3210 ng·h/mL. The Cmax (female, DBA, 10 mg/kg, wild-type DBA, n=10, venetoclax 10 mg/kg PO, no co-treatment) was 523 ng/mL, the Cmax (female, FVB, 10 mg/kg, Table S1: wild-type FVB, female, N=5, venetoclax 10 mg/kg PO, no co-treatment) was 1540 ng/mL and the AUC(0-t) (female, FVB, 10 mg/kg, Table S1: wild-type FVB, female, N=5, venetoclax 10 mg/kg PO, no co-treatment, read-out: Venetoclax AUC(0-last)) was 7430 ng·h/mL. It also gave a Cmax (female, FVB, 10 mg/kg, wild-type FVB, female, venetoclax 10 mg/kg PO 30 min after ketoconazole 50 mg/kg PO) of 3080 ng/mL, an AUC(0-t) (female, FVB, 10 mg/kg, wild-type FVB, female, venetoclax 10 mg/kg PO 30 min after ketoconazole 50 mg/kg PO, read-out: Venetoclax AUC(0–8h)) of 19700 ng·h/mL and an AUC(0-t) (female, FVB, 10 mg/kg, wild-type FVB, female, venetoclax 10 mg/kg PO, co-treatment PEG400 (vehicle), read-out: Venetoclax AUC(0–8h)) of 6530 ng·h/mL. For the same compound, the Cmax (female, FVB, 10 mg/kg, wild-type FVB, venetoclax 10 mg/kg PO, co-treatment PEG400 (vehicle)) was 1030 ng/mL, the Cmax (female, FVB.129P2 CYP3A(-/-), 10 mg/kg, Table S1: CYP3A(-/-), female, N=3, venetoclax 10 mg/kg PO, no co-treatment) was 3400 ng/mL and the AUC(0-t) (female, FVB.129P2 CYP3A(-/-), 10 mg/kg, Table S1: CYP3A(-/-), female, N=3, venetoclax 10 mg/kg PO, no co-treatment, read-out: Venetoclax AUC(0-last)) was 13700 ng·h/mL. For the same compound, the Cmax (female, FVB.129P2 CYP3A(−/−), 10 mg/kg, CYP3A(−/−), female, venetoclax 10 mg/kg PO 30 min after ketoconazole 50 mg/kg PO) was 2700 ng/mL, the AUC(0-t) (female, FVB.129P2 CYP3A(−/−), 10 mg/kg, CYP3A(−/−), female, venetoclax 10 mg/kg PO 30 min after ketoconazole 50 mg/kg PO, read-out: Venetoclax AUC(0–8h)) was 17300 ng·h/mL and the AUC(0-t) (female, FVB.129P2 CYP3A(−/−), 10 mg/kg, CYP3A(−/−), female, venetoclax 10 mg/kg PO, co-treatment PEG 400 (vehicle), read-out: Venetoclax AUC(0–8h)) was 10600 ng·h/mL. The Cmax (female, FVB.129P2 CYP3A(−/−), 10 mg/kg, CYP3A(−/−), venetoclax 10 mg/kg PO, co-treatment None (control of micafungin experiment)) was 1830 ng/mL, the Cmax (female, FVB.129P2 CYP3A(−/−), 10 mg/kg, CYP3A(−/−), venetoclax 10 mg/kg PO, co-treatment PEG 400 (vehicle)) was 1570 ng/mL and the Cmax (female, FVB.129P2 CYP3A(−/−), CYP3A(−/−), female, venetoclax 10 mg/kg PO 30 min after micafungin 100 mg/kg IV) was 2280 ng/mL. The AUC(0-t) (female, FVB.129P2 CYP3A(−/−), CYP3A(−/−), female, venetoclax 10 mg/kg PO 30 min after micafungin 100 mg/kg IV, read-out: Venetoclax AUC(0–8h)) was 13600 ng·h/mL, the AUC(0-t) (female, OATP1B2(−/−), 10 mg/kg, OATP1B2(−/−), female, n=10, venetoclax 10 mg/kg PO, no co-treatment, read-out: Venetoclax AUC(0–8h)) was 6480 ng·h/mL and the Cmax (female, OATP1B2(−/−), 10 mg/kg, n=10, venetoclax 10 mg/kg PO, no co-treatment) was 1070 ng/mL. For the same compound, the “Venetoclax AUC Fold Increase” value (male OATP1B2(-/-) versus male wild-type DBA (Figure S3, Table S1)) was 1.7 fold, the Cmax (male, DBA, 10 mg/kg, Table S1: wild-type DBA, male, venetoclax 10 mg/kg PO, no co-treatment) was 958 ng/mL and the AUC(0-t) (male, DBA, 10 mg/kg, Table S1: wild-type DBA, male, venetoclax 10 mg/kg PO, no co-treatment, read-out: Venetoclax AUC(0-last)) was 5270 ng·h/mL. The Cmax (male, OATP1B2(-/-), 10 mg/kg, Table S1: OATP1B2(-/-), male, venetoclax 10 mg/kg PO, no co-treatment) was 1610 ng/mL, the AUC(0-t) (male, OATP1B2(-/-), 10 mg/kg, Table S1: OATP1B2(-/-), male, venetoclax 10 mg/kg PO, no co-treatment, read-out: Venetoclax AUC(0-last)) was 9200 ng·h/mL and the “Venetoclax AUC Fold Increase” value (untreated CYP3A(-/-) versus untreated wild-type FVB, female (Figure S2, Table S1)) was 1.8 fold. For the same compound, the “Venetoclax AUC Fold Increase” value (vehicle-treated CYP3A(−/−) versus vehicle-treated wild-type FVB) was 1.6 (versus vehicle-treated wild-type FVB) fold, the “Venetoclax AUC Fold Increase” value (vehicle-treated CYP3A(−/−) versus vehicle-treated wild-type FVB, listed as venetoclax) was 1.6 fold and the “Venetoclax AUC Fold Increase” value (wild-type FVB + ketoconazole 50 mg/kg versus vehicle-treated wild-type FVB) was 3.0 (versus vehicle-treated wild-type FVB) fold. For the same compound, the “Venetoclax AUC Fold Increase” value (wild-type FVB + ketoconazole 50 mg/kg versus vehicle-treated wild-type FVB, listed as venetoclax) was 3 fold.

Reference: PMC9025810, “Interaction of Antifungal Drugs with CYP3A- and OATP1B-Mediated Venetoclax Elimination” (Pharmaceutics, 2022)
